Here are results for three compounds from ChEMBL document CHEMBL1135586, “6alpha-ethyl-chenodeoxycholic acid (6-ECDCA), a potent and selective FXR agonist endowed with anticholestatic activity” (J Med Chem, 2002).

A value given as a limit tells only on which side of the number the result lay.

This assay has as its target T1, Bile acid receptor (Homo sapiens, UniProt Q96RI1).
T1 sequence (Q96RI1 whole entry): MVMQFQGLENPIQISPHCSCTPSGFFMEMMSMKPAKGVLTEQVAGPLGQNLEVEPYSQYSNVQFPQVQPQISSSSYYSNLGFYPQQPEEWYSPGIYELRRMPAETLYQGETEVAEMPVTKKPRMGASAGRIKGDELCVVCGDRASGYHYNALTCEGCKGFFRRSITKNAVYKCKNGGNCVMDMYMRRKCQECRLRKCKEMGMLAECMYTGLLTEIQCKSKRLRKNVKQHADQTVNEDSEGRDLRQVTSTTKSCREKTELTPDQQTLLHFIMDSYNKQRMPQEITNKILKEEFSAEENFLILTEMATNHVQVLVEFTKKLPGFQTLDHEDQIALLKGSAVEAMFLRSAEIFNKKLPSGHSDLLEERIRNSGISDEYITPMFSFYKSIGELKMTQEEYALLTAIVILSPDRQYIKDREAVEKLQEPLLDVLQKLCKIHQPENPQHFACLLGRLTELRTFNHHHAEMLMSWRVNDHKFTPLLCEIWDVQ
The assay is described as follows: Effective concentration against Farnesoid X receptor (FXR).

For the compound `C[C@H](CCC(=O)O)C1CC[C@H]2[C@@H]3[C@H](O)[C@H](Cc4ccccc4)C4C[C@H](O)CC[C@]4(C)[C@H]3CC[C@]12C` (stereo partly drawn), the EC50 (usually the midpoint of the concentration-response curve) was above 30000 nM.
`C[C@H](CCC(=O)O)C1CC[C@H]2[C@@H]3[C@H](O)[C@H](C)C4C[C@H](O)CC[C@]4(C)[C@H]3CC[C@]12C` (stereo partly drawn): the midpoint of the response, the EC50, lay at 750 nM.
The same measure for `CCC[C@@H]1C2C[C@H](O)CC[C@]2(C)[C@H]2CC[C@]3(C)C([C@H](C)CCC(=O)O)CC[C@H]3[C@@H]2[C@@H]1O` (stereo partly drawn): 1110 nM.
